Test results as given in US10517889B2, “Modulators of SMAD7 expression” (Ionis Pharmaceuticals, Inc., priority 2017, dated 2019).
Strand notation (5' to 3'): a small letter for the sugar, then the base; units joined by * are phosphorothioate-linked, units joined directly phosphodiester-linked; [ ] holds rarer units or linkages, { } end groups; capitals alone tell only the bases. k = constrained ethyl (cEt); [5mC] = 5-methylcytosine; d = 2'-deoxy (DNA)

tested on: human SMAD7 mRNA; assay: Antisense inhibition of human SMAD7 mRNA expression in Hep3B cells by 3-10-3 cEt gapmers, 10,000 nM, electroporation (Example 2); type: cell-based; details: Hep3B cells, 10,000 nM antisense oligonucleotide, electroporation, approximately 24 hours, RT-PCR primer probe set RTS5062, relative to untreated control cells
Procedure, shortened: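 Hep3B, 20,000 cells/well; electroporation, 10,000 nM ASO; ~24 h. Readout: SMAD7 mRNA by qRT-PCR (RTS5062), RIBOGREEN-normalised; % inhibition vs untreated.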

| Substance | % Inhibition [%] |
| --- | --- |
| 799837 (antisense kT*k[5mC]*kA*dT*dA*dA*dG*d[5mC]*dA*dT*dA*dG*dA*kT*kT*kT) [compound 799837] | 38 |
| 799999 (kT*kT*kA*dG*dG*dA*dA*d[5mC]*dA*dA*dG*dG*dG*k[5mC]*kA*kA; antisense) [compound 799999] | 23 |

same assay, conditions: Hep3B cells, electroporation with 10,000 nM antisense oligonucleotide, approximately 24 hours, RTS5062, percent inhibition of SMAD7 mRNA relative to untreated control cells

| Substance | % Inhibition [%] |
| --- | --- |
| 799612 (kA*kA*kA*d[5mC]*dA*dG*d[5mC]*dA*d[5mC]*dA*d[5mC]*dA*dG*kG*kG*k[5mC]; antisense) [compound 799612] | 50 |
| 799289 (antisense kT*kA*kT*dT*dA*dA*dT*dG*dG*dT*d[5mC]*dT*dG*k[5mC]*kT*k[5mC]) [compound 799289] | 61 |
| 799747 (antisense kA*kA*kA*dT*dG*dG*dG*dA*dA*dA*dT*dA*dA*kG*kG*k[5mC]) [compound 799747] | 43 |

same assay, conditions: Hep3B cells, electroporation with 10,000 nM antisense oligonucleotide, approximately 24 hours, SMAD7 mRNA by RT-PCR (RTS5062), relative to untreated control cells

| Substance | % Inhibition [%] |
| --- | --- |
| 799888 (antisense kG*kG*kA*d[5mC]*dA*dA*dA*dA*d[5mC]*d[5mC]*d[5mC]*d[5mC]*dT*kA*kG*kA) [compound 799888] | 22 |
| 798721 (antisense kG*k[5mC]*k[5mC]*d[5mC]*dA*dG*dG*d[5mC]*dA*dG*d[5mC]*dA*dT*k[5mC]*k[5mC]*kA) [compound 798721] | 41 |
| 830105 (kT*kT*kA*dA*dG*d[5mC]*d[5mC]*d[5mC]*dG*d[5mC]*dT*d[5mC]*dT*k[5mC]*kA*kG; antisense) [compound 830105] | 48 |
| 798697 (antisense kA*k[5mC]*k[5mC]*dT*d[5mC]*d[5mC]*d[5mC]*d[5mC]*d[5mC]*dT*dG*d[5mC]*dG*k[5mC]*k[5mC]*k[5mC]) [compound 798697] | 23 |
| 798848 (kG*kA*kT*dT*dT*dT*dG*d[5mC]*dT*d[5mC]*d[5mC]*dG*d[5mC]*kA*k[5mC]*k[5mC]; antisense) [compound 798848] | 40 |
| 830052 (kG*kA*kG*dT*dA*dA*d[5mC]*d[5mC]*dA*dG*d[5mC]*dT*dG*kT*k[5mC]*kT; antisense) [compound 830052] | 35 |
| 830125 (antisense kT*k[5mC]*k[5mC]*dG*dA*dG*dG*d[5mC]*dA*d[5mC]*d[5mC]*dA*d[5mC]*kA*kT*kT) [compound 830125] | 46 |
| 772572 (antisense kA*kT*k[5mC]*dT*dT*d[5mC]*d[5mC]*d[5mC]*dG*dT*dA*dA*dG*kA*kT*kT) [compound 772572] | 0 |
| 798671 (antisense kA*kG*k[5mC]*dG*dG*d[5mC]*dG*dG*d[5mC]*dG*dG*d[5mC]*d[5mC]*k[5mC]*kG*kA) [compound 798671] | 61 |
| 830115 (kA*k[5mC]*k[5mC]*d[5mC]*dT*dA*dA*dA*d[5mC]*dT*dG*dA*dG*k[5mC]*k[5mC]*k[5mC]; antisense) [compound 830115] | 9 |
| 790458 (k[5mC]*kG*k[5mC]*d[5mC]*dA*dG*dT*d[5mC]*dT*d[5mC]*d[5mC]*d[5mC]*dG*kG*kA*kG; antisense) [compound 790458] | 0 |
| 798861 (kG*kT*kG*dT*dG*dG*d[5mC]*dG*dG*dA*d[5mC]*dT*dT*kG*kA*kT; antisense) [compound 798861] | 24 |
| 830079 (kA*kT*kA*d[5mC]*d[5mC]*d[5mC]*dT*dG*d[5mC]*dA*d[5mC]*dT*dT*kT*k[5mC]*kT; antisense) [compound 830079] | 22 |
| 799487 (antisense kA*kA*kA*d[5mC]*dA*dT*dA*dA*dT*dG*dA*d[5mC]*dT*kT*kA*kT) [compound 799487] | 0 |
| 830204 (kG*kT*kA*dT*d[5mC]*d[5mC]*dA*dT*d[5mC]*dA*dA*d[5mC]*dT*kG*k[5mC]*kT; antisense) [compound 830204] | 59 |
| 798869 (kA*kA*k[5mC]*dA*d[5mC]*d[5mC]*dT*dT*dG*dT*dG*dT*dA*k[5mC]*k[5mC]*kA; antisense) [compound 798869] | 41 |

same assay, conditions: Hep3B cells, electroporation with 10,000 nM antisense oligonucleotide, approximately 24 hours, primer probe set RTS5062, relative to untreated control cells

| Substance | % inhibition of SMAD7 mRNA expression [%] | % Inhibition [%] |
| --- | --- | --- |
| 799150 (antisense k[5mC]*kT*kA*dG*dG*dA*dT*dG*dG*dT*dA*d[5mC]*d[5mC]*kT*kT*kG) [compound 799150] | 22 |  |
| 799207 (k[5mC]*kT*kT*dT*dA*dT*dA*dT*dT*dT*dA*d[5mC]*dA*kA*kG*kT; antisense) [compound 799207] |  | 0 |
| 799213 (kT*kG*kT*dT*dT*dA*dT*dA*d[5mC]*dA*d[5mC]*dA*dT*kT*kG*k[5mC]; antisense) [compound 799213] | 42 |  |
| 799479 (antisense kT*kG*k[5mC]*d[5mC]*d[5mC]*dT*dT*d[5mC]*dT*dG*d[5mC]*dA*dG*kT*kG*kG) [compound 799479] | 24 |  |
| 799418 (antisense kG*kT*kA*dA*dA*dT*dG*dG*dT*d[5mC]*d[5mC]*dA*dT*kG*kT*kA) [compound 799418] | 12 |  |
| 798997 (antisense kG*k[5mC]*kA*d[5mC]*dA*d[5mC]*dT*d[5mC]*dA*d[5mC]*dA*d[5mC]*dT*k[5mC]*kA*k[5mC]) [compound 798997] |  | 12 |
| 799216 (kT*kA*kT*dT*dA*dA*dA*dG*d[5mC]*dA*dA*dA*dG*kT*kG*k[5mC]; antisense) [compound 799216] | 49 |  |
| 798726 (antisense k[5mC]*kA*k[5mC]*d[5mC]*dT*d[5mC]*dG*d[5mC]*dA*d[5mC]*d[5mC]*dG*d[5mC]*k[5mC]*kT*kT) [compound 798726] | 7 |  |
| 799121 (antisense k[5mC]*k[5mC]*kT*dA*dA*dT*dA*dG*d[5mC]*dA*dG*dA*dG*k[5mC]*kT*kT) [compound 799121] |  | 25 |
| 798776 (kA*k[5mC]*kA*d[5mC]*dA*dG*d[5mC]*d[5mC]*dT*d[5mC]*dT*dT*dG*kA*k[5mC]*kT; antisense) [compound 798776] | 34 |  |
| 798655 (kG*kG*k[5mC]*d[5mC]*d[5mC]*dG*d[5mC]*dG*d[5mC]*d[5mC]*d[5mC]*dT*dG*k[5mC]*kG*k[5mC]; antisense) [compound 798655] | 21 |  |
| 799027 (kA*k[5mC]*k[5mC]*dG*d[5mC]*dT*dT*dG*dG*dG*dA*d[5mC]*dT*kG*k[5mC]*kA; antisense) [compound 799027] | 46 |  |
| 799108 (antisense k[5mC]*kT*kG*dA*dG*d[5mC]*dT*dG*dG*dT*dT*dT*dT*k[5mC]*kT*kA) [compound 799108] | 64 |  |
| 799040 (kA*kG*k[5mC]*dT*dG*d[5mC]*dT*dG*dG*dG*dA*d[5mC]*d[5mC]*k[5mC]*k[5mC]*kA; antisense) [compound 799040] |  | 51 |
| 798994 (antisense kA*k[5mC]*kA*d[5mC]*dA*d[5mC]*dA*d[5mC]*dT*d[5mC]*d[5mC]*dT*dG*kA*k[5mC]*kA) [compound 798994] |  | 0 |
| 790655 (k[5mC]*kG*kT*dG*dT*dT*dA*dA*dA*dG*d[5mC]*dT*dG*kA*kG*k[5mC]; antisense) [compound 790655] | 42 |  |

same assay, conditions: Hep3B cells, electroporation, 10,000 nM antisense oligonucleotide, approximately 24 hours, RTS5062, relative to untreated control cells

| Substance | % inhibition of SMAD7 mRNA expression [%] |
| --- | --- |
| 799832 (antisense k[5mC]*kA*k[5mC]*d[5mC]*d[5mC]*dA*dT*dA*d[5mC]*dT*dT*dG*dG*kA*kA*kG) [compound 799832] | 14 |
| 799304 (antisense kG*kA*kA*dA*dG*dA*d[5mC]*dA*dA*dA*d[5mC]*d[5mC]*dA*k[5mC]*kA*k[5mC]) [compound 799304] | 54 |

same assay, conditions: Hep3B cells, electroporation, 10,000 nM, approximately 24 hours; 3-10-3 cEt gapmers targeting SEQ ID NO: 3 and 4

| Substance | % inhibition of SMAD7 mRNA expression [%] |
| --- | --- |
| 829940 (kG*kT*k[5mC]*dA*dG*dT*dT*dG*dG*dT*dT*dT*dG*kA*kG*kA; antisense) [compound 829940] | 14 |

same assay, conditions: SMAD7 mRNA, Hep3B cells, 10,000 nM antisense oligonucleotide, electroporation, approximately 24 hours, primer probe set RTS5062, relative to untreated control cells

| Substance | % Inhibition [%] |
| --- | --- |
| 829741 (antisense k[5mC]*k[5mC]*kG*dG*dA*d[5mC]*dG*dA*dG*d[5mC]*dG*d[5mC]*dA*kG*kA*kT) [compound 829741] | 32 |
| 790609 (kG*kT*k[5mC]*dT*dA*dA*dA*d[5mC]*dA*dT*dG*d[5mC]*dT*k[5mC]*kA*kT; antisense) [compound 790609] | 40 |
| 790679 (kA*kG*kG*dT*dT*dA*dA*dT*d[5mC]*dA*d[5mC]*dT*dT*k[5mC]*k[5mC]*kT; antisense) [compound 790679] | 13 |

same assay, conditions: SMAD7 mRNA, Hep3B cells, electroporation with 10,000 nM antisense oligonucleotide, approximately 24 hours, primer probe set RTS5062, relative to untreated control cells

| Substance | % Inhibition [%] |
| --- | --- |
| 829805 (kT*k[5mC]*kT*dA*dG*dT*dT*d[5mC]*dG*d[5mC]*dA*dG*dA*kG*kT*k[5mC]; antisense) [compound 829805] | 37 |
| 829982 (k[5mC]*kG*kG*dT*dG*dA*dT*dT*dG*d[5mC]*d[5mC]*dT*dT*kG*kA*kT; antisense) [compound 829982] | 44 |
| 829901 (antisense kA*kG*k[5mC]*dA*d[5mC]*dG*dG*dG*d[5mC]*dA*dG*d[5mC]*dT*kG*k[5mC]*kT) [compound 829901] | 10 |
| 830012 (antisense kG*k[5mC]*k[5mC]*dA*dG*dT*d[5mC]*dT*d[5mC]*dA*dA*dA*dT*kG*kG*kG) [compound 830012] | 37 |
| 829851 (antisense k[5mC]*kT*kT*dG*dT*dT*dG*dT*d[5mC]*d[5mC]*dG*dA*dA*kT*kT*kG) [compound 829851] | 31 |
| 829868 (antisense kA*kG*kT*dG*dT*dG*dG*d[5mC]*dG*dG*dA*d[5mC]*dT*kT*kG*kA) [compound 829868] | 52 |
